Reference: US7709457B2, “Methods and compositions for delivery of pharmaceutical agents” (Genecure Pte Ltd., priority 1999, dated 2010)

Legend:
[1] = test system: MB49 cells; test: Proliferation assay ([14C]-thymidine incorporation), toxicity of transfection agents; assay type: cell-based, murine
Procedure: Proliferation was assayed by measuring [^14C]-thymidine incorporation. 1×10^4 cells were plated per well in a 96 well flat-bottomed tissue culture plate (Nunc, Rosklide, Denmark) and transfected at optimal conditions as described above for the appropriate length of time (2 h and 24 h exposure), washed and incubated with fresh RPMI 1640 at 37° C. After 32 h, supernatants were removed, and cells were rinsed with 1×PBS. Triplicate wells were incubated with […], [^14]-thymidine (specific activity 56.5 mCi/mmol; Du Pont, Wilmington, Del., USA) for 16 h. The samples were harvested as described in Zhang, Y. et al. (1997) Int. J. Cancer 71:851-7. [^14C]-thymidine incorporation was expressed as a percentage of the incorporation in control cells, which consisted of untransfected cells. The non-parametric Mann-Whitney U test was used to calculate statistical significance. Probability values of p<0.05 were considered statistically significant.
A cell proliferation assay was used to gauge the toxicity of the transfection agents. Relative toxicity was measured by comparing proliferation in transfected and untransfected cells, 48 h after plating. Cells were exposed to the transfection agents for 2 h and 24 h.

[2] = test system: urothelial cells of the bladder; test: Transfection of murine bladders by intravesical instillation
Procedure: 5-7 week old-female C57BL6 mice were anaesthetized; their bladders were catheterized with 24 G i.v. catheter and flushed with 1×PBS. The DMBC and DNA complex were mixed for 15 min as described above. The final mix was made up to a final volume of 465 μl with 1×PBS for easy instillation and introduced intravesically. Transfection exposure times of 15 min, 30 min, 1 h or 2 h were evaluated. At different time points the bladders were flushed with 1×PBS to remove DNA/DMBC complex. The mice were sacrificed 48 h after treatment. Experiments were done in duplicates.
Cryostat sections of 6 μM in thickness were fixed in 1.25% glutaraldehyde for 10 min at 4° C. followed by incubation with X-gal for 4 h at 37° C. and were counterstained with haematoxylin.

[3] = test system: MB49 cells; test: Nuclear and cytoplasmic accumulation of plasmid DNA by PCR; assay type: cell-based, murine; details: nuclear and cytoplasmic extracts
Procedure: Nuclear and cytoplasmic fractionation of transfected cells was carried out using gentle lysis with TNE buffer (10 mM Tris, pH (pH8), 1 mM EDTA, 100 mM NaCl, 1% Igepecal) and left on ice for 10 min followed by centrifugation at 7K for 5 min at 4° C. in a microfuge. The supernatant so produced was labelled the cytoplasmic extract and was transferred to a fresh tube. The nuclear extract were prepared by treatment with a proteinase K digestion (100 mM, NaCl, 10 Mm Tris, pH8, 0.5% SDS 25 mM EDTA and 0.1 mg/ml proteinase K) of the pelleted material overnight at 50° C. Nuclear DNA was extracted with phenol/chloroform twice followed by ethanol precipitation. PCR analysis was carried out as described above.
To determine the localization of DNA following transfection with DOTAP and DMBC, nuclear and cytoplasmic extracts were prepared from transfected cells. The presence of DNA in these extracts was determined using PCR. […] The GADPH gene was used to confirm the presence of nuclear DNA in nuclear extracts and the lack of contamination of cytoplasmic fractions with nuclear DNA.

[4] = test system: MB49 cells; test: In vitro transfection efficiency of pCMVlacZ, X-gal staining; assay type: cell-based, murine
[5] = test system: human tumor xenografts; details: used by itself; cited from earlier work

1,2-diacyl-3-trimethylammonium propane [DOTAP]
14C-thymidine incorporation, transfected vs untransfected cells ([1]; 2 h exposure): no difference | cell proliferative capacity vs untransfected cells ([1]; 24 h exposure): reduction in cell proliferative capacity but this was not statistically significant | structure of bladder cells facing the lumen by transmission electron microscopy ([2]; 2 h transfection exposure, vs untransfected control bladder): did not result in any discernible structural difference | transfection of bladder epithelial cells facing the lumen ([2]; intravesical instillation, mice): did not result in efficient transfection | localization of LacZ plasmid DNA [3]: only found to be in the cytoplasm

[Ca+2].[Cl-].[Cl-] [Calcium chloride]
ability to transfect MB49 cells ([4]; MB49 cells, pCMVlacZ, 2 h): Neither calcium chloride (0-40 μg) nor DEAE-Dextran (0-2 μg) nor naked DNA could transfect MB49 cells | Transfection efficiency ([4]; MB49 cells, pCMVlacZ, 2 h, percentage of cells stained blue with X-gal): 0%

methyl-β-cyclodextrin
anti-tumor effect [5]: had an anti-tumor effect | transfection with cyclodextrin lacking cholesterol ([4]; methyl-β-cyclodextrin by itself in combination with DOTAP and DNA, murine bladder epithelial cells): no transfection of murine bladder epithelial cells
